Data taken from PubChem BioAssay (NCI).
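The concentration for 50% growth inhibition is given as GI50. At the TGI there is no net growth.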

Experiments:
Assay in all cases: NCI anticancer screen, dose series, 384-well format
SN12C renal = tested on: SN12C renal
MCF7 breast = tested on: MCF7 breast
NCI-H226 lung = tested on: NCI-H226 lung
SF-268 CNS = tested on: SF-268 CNS
SW-620 colon = tested on: SW-620 colon
NCI/ADR-RES ovarian = tested on: NCI/ADR-RES ovarian
SR leukemia = tested on: SR leukemia
HL-60(TB) leukemia = tested on: HL-60(TB) leukemia
HCT-116 colon = tested on: HCT-116 colon
M14 melanoma = tested on: M14 melanoma
RPMI-8226 leukemia = tested on: RPMI-8226 leukemia
OVCAR-5 ovarian = tested on: OVCAR-5 ovarian
KM12 colon = tested on: KM12 colon
HOP-62 NSCLC = tested on: HOP-62 NSCLC
786-0 renal = tested on: 786-0 renal
HCT-15 colon = tested on: HCT-15 colon
CAKI-1 renal = tested on: CAKI-1 renal
CCRF-CEM leukemia = tested on: CCRF-CEM leukemia
NCI-H322M lung = tested on: NCI-H322M lung
UO-31 renal = tested on: UO-31 renal
UACC-257 melanoma = tested on: UACC-257 melanoma
ACHN renal = tested on: ACHN renal
SF-539 CNS = tested on: SF-539 CNS
COLO 205 colon = tested on: COLO 205 colon
HT29 colon = tested on: HT29 colon
IGROV1 ovarian = tested on: IGROV1 ovarian
SNB-75 CNS = tested on: SNB-75 CNS
MDA-MB-231 breast = tested on: MDA-MB-231 breast
MDA-MB-435 melanoma = tested on: MDA-MB-435 melanoma
MDA-MB-468 breast = tested on: MDA-MB-468 breast
SF-295 CNS = tested on: SF-295 CNS
NCI-H23 lung = tested on: NCI-H23 lung
BT-549 breast = tested on: BT-549 breast
SK-MEL-5 melanoma = tested on: SK-MEL-5 melanoma
T-47D breast = tested on: T-47D breast
HCC-2998 colon = tested on: HCC-2998 colon
NCI-H522 lung = tested on: NCI-H522 lung
A549 NSCLC = tested on: A549 NSCLC
SNB-19 CNS = tested on: SNB-19 CNS
EKVX NSCLC = tested on: EKVX NSCLC
NCI-H460 NSCLC = tested on: NCI-H460 NSCLC
HOP-92 NSCLC = tested on: HOP-92 NSCLC
LOX IMVI melanoma = tested on: LOX IMVI melanoma
K-562 leukemia = tested on: K-562 leukemia
PC-3 prostate = tested on: PC-3 prostate
U251 glioblastoma = tested on: U251 glioblastoma
SK-OV-3 ovarian = tested on: SK-OV-3 ovarian
OVCAR-4 ovarian = tested on: OVCAR-4 ovarian
OVCAR-3 ovarian = tested on: OVCAR-3 ovarian
HS 578T breast = tested on: HS 578T breast
MOLT-4 leukemia = tested on: MOLT-4 leukemia
A498 renal = tested on: A498 renal
OVCAR-8 ovarian = tested on: OVCAR-8 ovarian
MALME-3M melanoma = tested on: MALME-3M melanoma
SK-MEL-28 melanoma = tested on: SK-MEL-28 melanoma
TK-10 renal = tested on: TK-10 renal
RXF 393 renal = tested on: RXF 393 renal
DU-145 prostate = tested on: DU-145 prostate

CCCS(=O)(=O)Nc1ccc(F)c(C(=O)c2c[nH]c3ncc(Cl)cc23)c1F
GI50 (SN12C renal): 19.6 µM
TGI (SN12C renal): 68.3 µM
GI50 (MCF7 breast): 20.3 µM
TGI (MCF7 breast): 50.7 µM
GI50 (NCI-H226 lung): 16.5 µM
TGI (NCI-H226 lung): 32.6 µM
GI50 (SF-268 CNS): 17.5 µM
TGI (SF-268 CNS): 44.7 µM
GI50 (SW-620 colon): 31.6 µM
TGI (SW-620 colon): 60 µM
GI50 (NCI/ADR-RES ovarian): 17.1 µM
TGI (NCI/ADR-RES ovarian): 33.6 µM
GI50 (SR leukemia): 3.93 µM
TGI (SR leukemia): 14.2 µM
GI50 (HL-60(TB) leukemia): 11.2 µM
TGI (HL-60(TB) leukemia): 23.3 µM
GI50 (HCT-116 colon): 8.39 µM
TGI (HCT-116 colon): 23.8 µM
GI50 (M14 melanoma): 0.0582 µM
TGI (M14 melanoma): 2.1 µM
GI50 (RPMI-8226 leukemia): 4.76 µM
TGI (RPMI-8226 leukemia): 15.7 µM
GI50 (OVCAR-5 ovarian): 19.2 µM
TGI (OVCAR-5 ovarian): 64.3 µM
GI50 (KM12 colon): 14.3 µM
TGI (KM12 colon): 33.3 µM
GI50 (HOP-62 NSCLC): 13.3 µM
TGI (HOP-62 NSCLC): 32.5 µM
GI50 ([…]-0 renal): 10.9 µM
TGI (786-0 renal): 25.6 µM
GI50 (HCT-15 colon): 9.16 µM
TGI (HCT-15 colon): 22 µM
GI50 (CAKI-1 renal): 6.54 µM
TGI (CAKI-1 renal): 46 µM
GI50 (CCRF-CEM leukemia): 11.7 µM
TGI (CCRF-CEM leukemia): 24 µM
GI50 (NCI-H322M lung): 10.1 µM
TGI (NCI-H322M lung): 80.2 µM
GI50 (UO-31 renal): 13.3 µM
TGI (UO-31 renal): 36.6 µM
GI50 (UACC-257 melanoma): 0.183 µM
TGI (UACC-257 melanoma): 1.18 µM
GI50 (ACHN renal): 4.26 µM
TGI (ACHN renal): 18.7 µM
GI50 (SF-539 CNS): 15.1 µM
TGI (SF-539 CNS): 35.3 µM
GI50 (COLO 205 colon): 0.144 µM
TGI (COLO 205 colon): 13.6 µM
GI50 (HT29 colon): 0.71 µM
TGI (HT29 colon): 17.1 µM
GI50 (IGROV1 ovarian): 4.47 µM
TGI (IGROV1 ovarian): 17.3 µM
GI50 (SNB-75 CNS): 11.2 µM
TGI (SNB-75 CNS): 34.2 µM
GI50 (MDA-MB-231 breast): 15.3 µM
TGI (MDA-MB-231 breast): 29.8 µM
GI50 (MDA-MB-435 melanoma): 0.681 µM
TGI (MDA-MB-435 melanoma): 17.7 µM
GI50 (MDA-MB-468 breast): 10.3 µM
TGI (MDA-MB-468 breast): 23.5 µM
GI50 (SF-295 CNS): 7.44 µM
TGI (SF-295 CNS): 27.3 µM
GI50 (NCI-H23 lung): 18.3 µM
TGI (NCI-H23 lung): 37.8 µM
GI50 (BT-549 breast): 15.5 µM
TGI (BT-549 breast): 29.3 µM
GI50 (SK-MEL-5 melanoma): 1.05 µM
TGI (SK-MEL-5 melanoma): 15 µM
GI50 (T-47D breast): 17.7 µM
TGI (T-47D breast): 55.6 µM
GI50 (HCC-2998 colon): 20.6 µM
TGI (HCC-2998 colon): 35.1 µM
GI50 (NCI-H522 lung): 16.1 µM
TGI (NCI-H522 lung): 32.1 µM
GI50 (A549 NSCLC): 12.3 µM
TGI (A549 NSCLC): 41.2 µM
GI50 (SNB-19 CNS): 31.3 µM
TGI (SNB-19 CNS): 86 µM
GI50 (EKVX NSCLC): 16.3 µM
TGI (EKVX NSCLC): 41.3 µM
GI50 (NCI-H460 NSCLC): 6.96 µM
TGI (NCI-H460 NSCLC): 21.3 µM
GI50 (HOP-92 NSCLC): 15 µM
TGI (HOP-92 NSCLC): 36.3 µM
GI50 (LOX IMVI melanoma): 2.64 µM
TGI (LOX IMVI melanoma): 15.9 µM
GI50 (K-562 leukemia): 11.3 µM
TGI (K-562 leukemia): 23.7 µM
GI50 (PC-3 prostate): 16.3 µM
TGI (PC-3 prostate): 41 µM
GI50 (U251 glioblastoma): 13.1 µM
TGI (U251 glioblastoma): 27.2 µM
GI50 (SK-OV-3 ovarian): 4.11 µM
TGI (SK-OV-3 ovarian): 19.8 µM
GI50 (OVCAR-4 ovarian): 21.1 µM
TGI (OVCAR-4 ovarian): 59.1 µM
GI50 (OVCAR-3 ovarian): 13.5 µM
TGI (OVCAR-3 ovarian): 29.7 µM
GI50 (HS 578T breast): 4.5 µM
TGI (HS 578T breast): 15.4 µM
GI50 (MOLT-4 leukemia): 12.3 µM
TGI (MOLT-4 leukemia): 24.9 µM
GI50 (A498 renal): 5.21 µM
TGI (A498 renal): 20.3 µM
GI50 (OVCAR-8 ovarian): 13.5 µM
TGI (OVCAR-8 ovarian): 39.5 µM
GI50 (MALME-3M melanoma): 0.0363 µM
TGI (MALME-3M melanoma): 0.118 µM
GI50 (SK-MEL-28 melanoma): 0.0544 µM
TGI (SK-MEL-28 melanoma): 0.549 µM
GI50 (TK-10 renal): 10.3 µM
TGI (TK-10 renal): 28.4 µM
GI50 (RXF 393 renal): 4.12 µM
TGI (RXF 393 renal): 13.8 µM
GI50 (DU-145 prostate): 9.18 µM
TGI (DU-145 prostate): 27.9 µM
